Test results as given in patent US9683986B2, “Treatment of cancer by inhibition of the MYD88/ERK MAP kinase interaction” (CENTRE LEON BERARD, priority 2011, dated 2017).

Test system: HCT116 p53+/+ or p53−/− tumor
Test: Subcutaneous HCT116 shMyD88 tumors in nude mice, doxycyclin-induced MyD88 extinction
Type: in vivo
Conditions: HCT116 cells stably expressing doxycyclin-inducible MyD88 shRNA, treated with doxycyclin
Experimental: Then we generated HCT116 p53+/+ or p53−/− stably expressing a doxycyclin-inducible MyD88 shRNA. These cell lines were subcutaneously implanted in nude mice, then the mice were treated or not with doxycyclin to induce MyD88 extinction in the tumor.

## MyD88 shRNA: doxycyclin-inducible MyD88 shRNA stably expressed in HCT116 cells (sense CGGACCCTAAATCCAATAGAAA; antisense TTTCTATTGGATTTAGGGTCCT)
  Tumor growth in vivo: blocks tumor growth in vivo
